Test results from patent publication US20230162361A1, “ASSESSMENT OF SKIN TOXICITY IN AN IN VITRO TISSUE SAMPLES USING DEEP LEARNING” (Genentech, Inc., priority 2020, published 2023).
Like-named read-outs stand apart in the source and are kept apart here.

Key:
[1] = tested on: reconstructed human epidermis (RHE) samples; experiment: 3D in vitro reconstructed human epidermis (RHE) model, viable epidermal thickness measured with the machine-learning model after 4-day treatment
From the text: A decrease in epidermal thickness of the skin may be a toxicity indication for skin toxicities as well as for cutaneous disease. For example, one can calculate a percentage by dividing the epidermal thickness of the skin after the treatment by a drug compound by the epidermal thickness before the treatment. If the percentage is smaller than 10%, it may indicate very severe toxicity; if the percentage is between 10% and 50%, it may indicate severe toxicity; if the percentage is between 50% and […], it may indicate mild toxicity; and if the percentage is larger than 90%, it may indicate rare or no toxicity. There are few preclinical methods for evaluating in vivo skin toxicity prior to clinical trial. The last two decades have seen the advent of in vitro human skin models, which have a proven record of accurately predicting clinical skin toxicity. FIG. 3A illustrates an example reconstructed human epidermis (RHE) model 300. These reconstituted human epidermal (RHE) models 300 may be metabolically and mitotically active 3D models of the normal human epidermis derived from cultured human epidermal keratinocytes. The RHE models 300 may have in vivo-like morphology and growth characteristics. […] The RHE models 300 may have keratinocytes only but no dermis, vasculature or immune/inflammatory cells.
FIG. 5A illustrates an example annotation of an RHE sample 310 with tissue sections. […] After the epidermal area is identified, the thickness of the viable epidermal area may be computed, e.g., based on distance transformation. In particular embodiments, the median thickness value may be used to represent the thickness of the viable epidermal area for each tissue section and the average thickness of the two tissue sections of a RHE sample 310 may be used to represent a single RHE sample 310. FIG. 5B illustrates an example extraction of thickness of a tissue sample. […] The digital pathology image processing system 110 may then quantify, based on the centerline, a thickness value for each of the plurality of locations. […] This way, the thickness of each tissue sample (e.g., RHE sample 310) may be normalized. FIG. 5C illustrates an example normalization of the tissue thickness. […] The left subfigure of FIG. 5C may show the originally measured thickness whereas the right subfigure of FIG. 5C may show the normalized thickness. Although this disclosure describes calculating normalized thickness in a particular manner, this disclosure contemplates calculating normalized thickness in any suitable manner. As an example and not by way of limitation, the digital pathology image processing system may determine a plurality of stepwise thickness measurements along an axis determined based on the epidermal layer, calculate a length and area of the epidermal layer with the thickness being derived from them, and then calculate the normalized thickness accordingly.
The embodiments disclosed herein further conduct a retrospective study based on RHE samples 310 from five studies that evaluated the skin toxicity of various compounds. The 3D in vitro human skin model was used for all studies. A total of 31 compounds with known or suspected clinical skin toxicity were evaluated for skin toxicity, some of which were evaluated in more than one study. Upon receipt of the RHE samples 310, each tissue culture insert was transferred to a well of 6-well plate containing 1 mL/well of pre-warmed maintenance media and kept dry on top to maintain an air-liquid interface. The RHE samples 310 were equilibrated at 37° C., 5% CO2 overnight, and fed with fresh media the next day. One day later, the RHE samples 310 were subjected to 4-day daily basolateral treatment with test articles at various concentrations, or vehicle control DMSO at 0.5%.

[2] = cited from earlier work
[3] = tested on: skin; details: cited from earlier work; for Skin tox.: clinical skin toxicity (rash, pruritus, acne, dermatitis, alopecia, dry skin) in labels or publications; for clinical toxicity: clinical skin toxicity
[4] = clinical exposure, maximal free concentrations measured in plasma
[5] = marked *: plasma protein binding unavailable, total concentration used
[6] = mean, normalized to control, test concentration 2 uM
[7] = mean, normalized to control, test concentration 10 uM

Compound: CS(=O)(=O)N1CCN(Cc2cc3nc(-c4cccc5[nH]ncc45)nc(N4CCOCC4)c3s2)CC1 [Pictilisib]
- change in epidermal thickness versus control (FIG. 11A) [1]: significant decrease in epidermal thickness
- Normalized thickness ([1]; human, 4 days, 0.02 uM): 0.94
- Normalized thickness ([1]; human, 4 days, 1 uM): 0.46

Compound: O=C(c1ccc(F)c(F)c1Nc1ccc(I)cc1F)N1CC(O)([C@@H]2CCCCN2)C1 [Cobimetinib]
- Cmax_free [2, 4]: 0.03 µM
- change in epidermal thickness versus control (FIG. 11A) [1]: significant decrease in epidermal thickness
- Normalized thickness ([1]; human, 4 days, 0.02 uM): 0.91
- Normalized thickness ([1]; human, 4 days, 1 uM): 0.71
- Skin tox. [3]: Yes
- clinical toxicity [3]: demonstrated clinical toxicity

Compound: C[C@@H]1CCN(C(=O)CC#N)C[C@@H]1N(C)c1ncnc2[nH]ccc12 [Tofacitinib]
- change in epidermal thickness versus control (FIG. 11A) [1]: significant decrease in epidermal thickness
- Normalized thickness ([1]; human, 4 days, 2 uM): 0.84
- Normalized thickness ([1]; human, 4 days, 10 uM): 0.82
- Skin tox. [3]: No
- clinical toxicity [3]: did not exhibit clinical toxicity

Compound: C#Cc1cccc(Nc2ncnc3cc(OCCOC)c(OCCOC)cc23)c1 [Erlotinib]
- Cmax_free [2, 4]: 0.38 µM
- change in epidermal thickness versus control (FIG. 11A) [1]: significant decrease in epidermal thickness
- Normalized thickness ([1]; human, 4 days, 1 uM): 0.53
- Normalized thickness ([1]; human, 4 days, 2 uM): 0.75
- Normalized thickness ([1]; human, 4 days, 10 uM): 0.41
- Skin tox. [3]: Yes
- clinical toxicity [3]: demonstrated clinical toxicity

Compound: CC(=O)c1c(C)c2cnc(Nc3ccc(N4CCNCC4)cn3)nc2n(C2CCCC2)c1=O [Palbociclib]
- Normalized thickness ([1]; human, 4 days, 0.023 uM): 1.02
- Normalized thickness ([1]; human, 4 days, 0.23 uM): 0.99
- Skin tox. [3]: Yes

Compound: Cn1cc(-c2ccc3nnc(C(F)(F)c4ccc5ncccc5c4)n3n2)cn1 [Jnj-38877605]
- Cmax_free [2, 5]: 0.13* uM
- Normalized thickness [1, 6]: 0.82
- Normalized thickness [1, 7]: 0.91
- Skin tox. [3]: No

Compound: CNC(=O)c1cc(Oc2ccc(NC(=O)Nc3ccc(Cl)c(C(F)(F)F)c3)cc2)ccn1 [Sorafenib]
- Cmax_free [2, 4]: 0.07 µM
- change in epidermal thickness versus control (FIG. 11A) [1]: failed to cause any meaningful change in epidermal thickness
- Normalized thickness ([1]; human, 4 days, 0.5 uM): 0.87
- Normalized thickness ([1]; human, 4 days, 5 uM): 0.85
- Skin tox. [3]: Yes

Compound: CC[C@H](Nc1ncnc2[nH]cnc12)c1nc2cccc(F)c2c(=O)n1-c1ccccc1 [Idelalisib]
- Cmax_free [2, 4]: 0.84 µM
- Normalized thickness ([1]; human, 4 days, 0.08 uM): 0.95
- Normalized thickness ([1]; human, 4 days, 0.8 uM): 1.00
- Skin tox. [3]: Yes

Compound: OCCn1cc(-c2cnc3nnn(Cc4ccc5ncccc5c4)c3n2)cn1 [Pf-04217903]
- Cmax_free [2, 4]: 0.015 µM
- normalized epidermal thickness decrease ([1]; 10 µM): greater than 20%
- Normalized thickness [1, 6]: 0.91
- Normalized thickness [1, 7]: 0.72
- change in epidermal thickness versus control (FIG. 11A) ([1]; normalized viable epidermal thickness, multiple comparison, result in words): significant decrease in epidermal thickness
- Skin tox. [3]: No
- clinical toxicity [3]: did not exhibit clinical toxicity

Compound: CS(=O)(=O)CCNCc1ccc(-c2ccc3ncnc(Nc4ccc(OCc5cccc(F)c5)c(Cl)c4)c3c2)o1 [Lapatinib]
- Cmax_free [2, 4]: 0.000039 µM
- change in epidermal thickness versus control (FIG. 11A) [1]: significant decrease in epidermal thickness
- Normalized thickness ([1]; human, 4 days, 1 uM): 0.66
- Normalized thickness ([1]; human, 4 days, 10 uM): 0.47
- Skin tox. [3]: Yes
- clinical toxicity [3]: demonstrated clinical toxicity

Compound: Cc1nc(NC(=O)N2CCC[C@H]2C(N)=O)sc1-c1ccnc(C(C)(C)C(F)(F)F)c1 [Alpelisib]
- Cmax_free [2, 4]: 0.61 µM
- change in epidermal thickness versus control (FIG. 11A) [1]: significant decrease in epidermal thickness
- Normalized thickness ([1]; human, 4 days, 0.32 uM): 0.75
- Normalized thickness ([1]; human, 4 days, 3.2 uM): 0.45
- Skin tox. [3]: Yes
- clinical toxicity [3]: demonstrated clinical toxicity

Compound: C=CC(=O)N1CCC(Oc2cc3c(Nc4ccc(Cl)c(Cl)c4F)ncnc3cc2OC)CC1 [Poziotinib]
- Cmax_free [2, 4]: 0.0021 µM
- change in epidermal thickness versus control (FIG. 11A) [1]: significant decrease in epidermal thickness
- Normalized thickness ([1]; human, 4 days, 0.3 uM): 0.72
- Normalized thickness ([1]; human, 4 days, 1 uM): 0.65
- Normalized thickness ([1]; human, 4 days, 10 uM): 0.73
- Skin tox. [3]: Yes
- clinical toxicity [3]: demonstrated clinical toxicity

Compound: COC(=O)Nc1nc2cc(C3(O)c4ccccc4C(=O)N3c3cc(Cl)ccc3C)ccc2[nH]1 (centres unmarked) [XL281]
- Cmax_free [2, 5]: 4.5* uM
- change in epidermal thickness versus control (FIG. 11A) [1]: increase in epidermal thickness
- Normalized thickness ([1]; human, 4 days, 0.5 uM): 1.14
- Normalized thickness ([1]; human, 4 days, 5 uM): 0.89
- Skin tox. [3]: No

Compound: N#CC[C@H](C1CCCC1)n1cc(-c2ncnc3[nH]ccc23)cn1 [Ruxolitinib]
- Cmax_free [2, 4]: 0.033 µM
- change in epidermal thickness versus control (FIG. 11A) [1]: significant decrease in epidermal thickness
- Normalized thickness ([1]; human, 4 days, 2 uM): 0.85
- Normalized thickness ([1]; human, 4 days, 10 uM): 0.81
- Skin tox. [3]: No
- clinical toxicity [3]: did not exhibit clinical toxicity

Compound: C=CC(=O)Nc1cc(Nc2nccc(-c3cn(C)c4ccccc34)n2)c(OC)cc1N(C)CCN(C)C [Osimertinib]
- Cmax_free [2, 4]: 0.025 µM
- change in epidermal thickness versus control (FIG. 11A) [1]: significant decrease in epidermal thickness
- Normalized thickness ([1]; human, 4 days, 0.3 uM): 0.85
- median normalized thickness ([1]; human, 4 days, 300 nM): 0.80
- Normalized thickness ([1]; human, 4 days, 1 uM): 0.61
- Normalized thickness ([1]; human, 4 days, 3 uM): 0.45
- Normalized thickness ([1]; human, 4 days, 10 uM): 0.76
- Skin tox. [3]: Yes
- clinical toxicity [3]: demonstrated clinical toxicity

Compound: CN(C)C/C=C/C(=O)Nc1cc2c(Nc3ccc(F)c(Cl)c3)ncnc2cc1O[C@H]1CCOC1 [Afatinib]
- Cmax_free [2, 4]: 0.0042 µM
- change in epidermal thickness versus control (FIG. 11A) [1]: significant decrease in epidermal thickness
- Normalized thickness ([1]; human, 4 days, 1 uM): 0.70
- Normalized thickness ([1]; human, 4 days, 10 uM): 0.77
- Skin tox. [3]: Yes
- clinical toxicity [3]: demonstrated clinical toxicity
